Data as given in patent publication US9932339B2, “Helquats with heteroaromatic substituents, preparation thereof, and use thereof as G-quadruplex stabilizers” (USTAV ORGANICKE CHEMIE A BIOCHEMIE AV CR, V.V.I., priority 2014, dated 2018).

Test system: c-Myc27 oligonucleotide G-quadruplex
Assay: ECD melting curve of c-Myc27 oligonucleotide G-quadruplex with ligands
Assay type: binding
Conditions: ECD at 263 nm; molar ratio oligonucleotide:ligand 1:1 (5 μmol l^−1 each); Li+-cacodylate buffer
Experimental: ECD spectra were measured on J-815 spectrometer (Jasco, Japan). Measurement settings (Tab. 3), spectra saving and background subtraction was performed in a Spectra Manager software (Jasco, Japan).
For measurement of the temperature dependencies the cuvettes in the cuvette compartment were placed in the Peltier module, the temperature was controlled by the Spectra Manager software. Melting curves were measured at a wavelength which corresponds to the maximum difference in signal intensity of ECD spectra of oligonucleotide at 25 and 95° C., as shown in FIG. 1. Before and after measuring the melting curves, ECD spectra in extreme temperatures were measured, in order to verify the stability of the studied system.
Processing of the spectra was performed using Spectra Manager (Jasco, Japan). The resulting spectra were obtained from the measured sample spectrum after subtraction of background spectrum, which was spectrum of the solvent. Measuring of sample spectrum and background was conducted under identical conditions. ECD spectra are reported as ellipticity, labeled in the CD figures [mdeg], whose numerical value is associated with dimensionless circular dichroism ΔA (CDv=32980 ΔAv). This CD notations preserves conventions of the international journals in which articles from the field are published.
Stock solution of […] was prepared from c-Myc27 oligonucleotide by dissolution in H2O. The cuvette of 1 mm thickness was filled with 7 μl of oligonucleotide solution and 133 μl of Li^+-cacodylate buffer. Oligonucleotide solution in the cuvette was overlayed with mineral oil to measure temperature dependencies without concentration changes due to evaporation of the solvent at higher temperatures.
From stock solutions of the racemic ligands in DMSO at a concentration of […] solutions were prepared at a concentration of 140 μmol l^−1 by dissolving in H2O. Ligands were added to the solution of oligonucleotide under buffer/mineral oil interface using Hamilton microsyringe (5 μl of solution at a concentration of […]). The resulting molar ratio of oligonucleotide:ligand was 1:1.
The cuvette filled with c-Myc27 oligonucleotide solution in Li^+-cacodylate buffer (cc-Myc27=5 μmol l^−1) was first heated for 5 minutes at 95° C., at this temperature ECD spectrum was measured. Then the sample was cooled to 25° C., allowed to stabilize for 10 min and then ECD spectrum was measured again. Then, the melting curve of ECD oligonucleotide at 263 nm was measured in the temperature range 25-95° C. and for verification of the stability of the sample spectra the spectra were measured again at 95 and 25° C. Under the oil layer ligand solution (cligand=5 μmol l^−1) was added to a solution of oligonucleotide, the sample was thoroughly mixed and ECD spectrum measured at 25° C., the melting curve was obtained and again control spectra were measured at 95 and 25° C.
Decomposition of the G-quadruplex structure in the presence of ligands under influence of temperature was monitored at the wavelength corresponding to the maximum difference in signal intensities of ECD oligonucleotide/ligand at 25 and 95° C., i.e. at 263 nm. Thermal stability of G-quadruplex was monitored in the range of 25 to 95° C. and in a molar ratio of oligonucleotide:ligand=1:1. Example of influence of the studied ligand on the stability of G-quadruplex formed from c-Myc27 oligonucleotide is shown in FIG. 2.
The degree of G-quadruplex stabilization was expressed as change of melting temperature caused by the presence of G-quadruplex ligands (ΔTm): ΔTm=Tm,oligonucleotide+ligand−Tm,oligonucleotide (1), • where Tm,oligonucleotide+ligand is melting temperature of molecular system comprising the oligonucleotide and the ligand and Tm,oligonucleotide, the melting temperature of the oligonucleotide itself. Tab. 4 summarizes the changes in melting temperatures of c-Myc27 oligonucleotide G-quadruplex in the presence of studied ligands.

## Cc1c(C)c2c(c3c1CC[n+]1ccc(/C=C/c4cccc5c4oc4ccccc45)cc1-3)-c1c3ccccc3cc[n+]1CC2 (racemic) [MJA-C13-8, (rac)-(E)-13-(2-(dibenzo[b,d]furan-4-yl)vinyl)-6,7-dimethyl-4,5,8,9-tetrahydroisoquinolino[1,2-a]pyrido[1,2-k][2,9]phenanthroline-3,10-diium trifluoromethanesulfonate]
  ΔTm (° C.): 6.8 °C
